Experimental data as given in PubChem BioAssay (NCI).
“And” between values parts separate entries of the source, which are not always exact repeats. Equal values may be shown once.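 Dose response: 5 concentrations. Exposure: 48 h. Format: 96-well plates. Endpoint: linear interpolation; highest concentration if not reached. GI50 marks 50% less growth. The concentration for full growth arrest is given as TGI.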

Legend:
Assay in all cases: DTP human tumour cell line panel, 48 h
786-0 renal = system: 786-0 renal
HCC-2998 colon = system: HCC-2998 colon
HCT-116 colon = system: HCT-116 colon
M14 melanoma = system: M14 melanoma
SK-MEL-5 melanoma = system: SK-MEL-5 melanoma
SN12C renal = system: SN12C renal
SW-620 colon = system: SW-620 colon
NCI-H522 lung = system: NCI-H522 lung
HS 578T breast = system: HS 578T breast
MDA-MB-435 = system: MDA-MB-435
NCI/ADR-RES ovarian = system: NCI/ADR-RES ovarian
DU-145 prostate = system: DU-145 prostate

SMILES | TGI (786-0 renal) | TGI (HCC-2998 colon) | TGI (HCT-116 colon) | TGI (M14 melanoma) | TGI (SK-MEL-5 melanoma) | TGI (SN12C renal) | TGI (SW-620 colon) | TGI (NCI-H522 lung) | TGI (HS 578T breast) | TGI (MDA-MB-435) | TGI (NCI/ADR-RES ovarian) | TGI (DU-145 prostate) | GI50 (DU-145 prostate) | GI50 (MDA-MB-435) | GI50 (NCI-H522 lung) | GI50 (SK-MEL-5 melanoma) | GI50 (SN12C renal) | GI50 (SW-620 colon) | GI50 (HCC-2998 colon) | GI50 (NCI/ADR-RES ovarian)
CCc1cc(Cc2cc(CC)c(NC(=O)C3=CC(=O)CC(c4ccc(OC)cc4)O3)c(CC)c2Cl)c(Cl)c(CC)c1NC(=O)C1=CC(=O)CC(c2ccc(OC)cc2)O1 (configuration not stated) | 34.3 µM | 30.4 µM | 31.6 µM | 31.6 µM | 36.4 µM | 39.5 µM | 20.9 µM | – | – | – | – | – | – | – | – | – | – | – | – | –
CC(=O)OC1[C@H]2c3cc4c(cc3CN3CCC(C[C@@H]1OC(C)=O)C23)OCO4 (some centres not stated) | > 75 µM | > 75 µM | > 75 µM | > 75 µM | – | > 75 µM | > 75 µM | > 75 µM | – | – | – | – | – | – | – | – | – | – | – | –
COc1ccc(/C=C2/C(=O)N(C(=O)c3ccc(Cl)cc3)N=C2C)cc1OC | > 100 µM | > 100 µM | > 100 µM | > 100 µM | > 100 µM | > 100 µM | > 100 µM | > 100 µM | – | – | – | – | – | – | – | – | – | – | – | –
Cc1ccc(S(=O)(=O)N/N=C2\C(=O)C3CC2C(Cl)C3Cl)cc1 (configuration not stated) | > 100 µM | > 100 µM | > 100 µM | > 100 µM | > 100 µM | > 100 µM | > 100 µM | – | – | – | – | – | – | – | – | – | – | – | – | –
COc1ccc2c(c1)c(Cc1c(C)n(C)c3ccc(OC)cc13)c(C)n2C | > 100 µM | – | > 100 µM | > 100 µM | > 100 µM | > 100 µM | > 100 µM | > 100 µM | – | – | – | – | – | – | – | – | – | – | – | –
CC(SC1=CC(=O)c2c(Cl)ccc(O)c2C1=O)C(=O)O (configuration not stated) | – | 41.1 µM | 34.4 µM | – | 27.5 µM | 30.9 µM | 36.2 µM | – | – | – | – | – | – | – | – | – | – | – | – | –
CC(C#N)Nc1ccc(Oc2ccc(C(C)(C)c3ccc(Oc4ccc(NC(C)C#N)cc4)cc3)cc2)cc1 (configuration not stated) | > 100 µM | > 100 µM | > 100 µM | > 100 µM | > 100 µM | > 100 µM | > 100 µM | – | 94 µM | > 100 µM | > 100 µM | – | – | – | – | – | – | – | – | –
C/C(C=O)=C1\C(O)C[C@]1(C)C1CC(C)(C)CC1O (some centres not stated) | > 100 µM | > 100 µM | > 100 µM | > 100 µM | > 100 µM | > 100 µM | > 100 µM | > 100 µM | – | – | – | – | – | – | – | – | – | – | – | –
COc1c(O)cc(/C=C/c2cc(O)cc3c2[C@@]2(C(=O)O3)c3c(O)cc(O)cc3OC2c2cccc(O)c2)cc1O (some centres not stated) | > 100 µM | – | > 100 µM | > 100 µM | 72.1 µM | 64.3 µM | > 100 µM | > 100 µM | > 100 µM | > 100 µM | 77.8 µM | > 100 µM | – | – | – | – | – | – | – | –
COc1ccc(CCN2CCC(C#N)(c3ccc(OC)c(OC)c3)CC2)cc1OC | > 100 µM | > 100 µM | > 100 µM | > 100 µM | > 100 µM | > 100 µM | > 100 µM | > 100 µM | – | – | – | – | – | – | – | – | – | – | – | –
CCCCOC(=O)/C(CC(=O)C=C(C)C)=N\NS(=O)(=O)c1ccc(C)cc1 | > 100 µM | > 100 µM | > 100 µM | > 100 µM | > 100 µM | > 100 µM | – | > 100 µM | – | – | – | – | – | – | – | – | – | – | – | –
CC1C2CC(C(C3C(=O)C4CC3C(C)(C)C4C)C2=O)C1(C)C (configuration not stated) | > 100 µM | > 100 µM | > 100 µM | > 100 µM | > 100 µM | > 100 µM | > 100 µM | > 100 µM | > 100 µM | > 100 µM | – | > 100 µM | – | – | – | – | – | – | – | –
COc1ccc(NC(=O)C2=C(SC)C(C#N)C(=O)N=C2N)cc1 (configuration not stated) | > 100 µM | > 100 µM | > 100 µM | > 100 µM | > 100 µM | > 100 µM | > 100 µM | 32.1 µM | > 100 µM | > 100 µM | – | > 100 µM | – | – | – | – | – | – | – | –
O=C1/C(=C/c2cccc([N+](=O)[O-])c2)COc2ccccc21 | 3.16 µM | > 23.4 µM | 3.16 µM | 3.38 µM | 4.99 µM | – | 2.09 µM | 3.1 µM | – | – | – | – | – | – | – | – | – | – | – | –
COc1ccccc1NC(=O)C(C#N)=C(SC)SC | > 100 µM | > 100 µM | > 100 µM | > 100 µM | > 100 µM | > 100 µM | > 100 µM | > 100 µM | > 100 µM | > 100 µM | – | > 100 µM | – | – | – | – | – | – | – | –
Clc1cc(Cl)cc(N2N=C(c3cccc(Nc4ccncc4)c3)CC2c2ccccc2)c1 (configuration not stated) | – | – | – | – | 3.23 µM | 3.12 µM | 3.73 µM | 3.6 µM | – | 3.36 µM | – | 6.51 µM | 2.54 µM | 1.72 µM | 1.79 µM | 1.78 µM | 1.66 µM | 1.85 µM | – | –
O=C(CCN(CCO)CCO)Nc1ccc2c(c1)C(=O)c1ccc(NC(=O)CCN(CCO)CCO)cc1C2=O | 32 µM | 8.52 µM | 33.2 µM | 38.3 µM | 40.7 µM | > 100 µM | 33.4 µM | 19.7 µM | – | – | – | – | – | – | – | – | – | – | – | –
COc1ccc2c(OC)c3ccoc3nc2c1O | > 100 µM | > 100 µM | > 100 µM | > 100 µM | > 100 µM | > 100 µM | > 100 µM | > 100 µM | – | – | – | – | – | – | – | – | – | – | – | –
CC(=NNC(=S)Nc1ccccc1C)c1cccc(C(C)=NNC(=S)Nc2ccccc2C)n1 | > 100 µM | > 100 µM | > 100 µM | > 100 µM | > 100 µM | > 100 µM | > 100 µM | – | – | > 100 µM | > 100 µM | > 100 µM | – | – | – | – | – | – | – | –
COC(=O)/C=C/c1cc(OC)c2c(c1)C(C(=O)OC)C(c1ccc(OC)c(OC)c1)O2 (configuration not stated) | > 100 µM | > 100 µM | > 100 µM | > 100 µM | > 100 µM | > 100 µM | > 100 µM | > 100 µM | – | 49 µM | > 100 µM | > 100 µM | > 100 µM | 19.8 µM | – | – | – | – | > 100 µM and 38.6 µM | 43.3 µM and 4.9 µM
CCOC(=O)[C@H]1C[C@@H](C(=O)c2ccccc2)N2N=C(c3ccc(Br)cc3)C=C[C@H]12 | > 100 µM | > 100 µM | > 100 µM | > 100 µM | – | > 100 µM | > 100 µM | – | > 100 µM | > 100 µM | > 100 µM | > 100 µM | – | – | – | – | – | – | – | –
N#CCCc1nc2ccc(Br)cc2c(=O)n1-c1ccc(O)c([N+](=O)[O-])c1 | 43.2 µM | 37.4 µM | – | 44.7 µM | 36.3 µM | 38.6 µM | 46.8 µM | 31.8 µM | – | – | – | – | – | – | – | – | – | – | – | –
Cc1nc2ccccc2nc1NS(=O)(=O)c1ccc(N)cc1 | > 100 µM | > 100 µM | – | > 100 µM | > 100 µM | > 100 µM | > 100 µM | > 100 µM | – | – | – | – | – | – | – | – | – | – | – | –
